# Data: patent publication US10399949B2, “NK1 receptor antagonist” (KISSEI PHARMACEUTICAL CO., LTD., priority 2015, dated 2019)
# Assays:
# [1] = target: T1, human NK1 receptor (Homo sapiens, UniProt P25103); assay: Inhibitory effect on human NK1 receptor (substance P-induced increase in intracellular calcium concentration); assay type: cell-based; conditions: HEK-293T; substance P 0.1 μM; compound 1 μM; human NK1 receptor-expressing 293T cells; vehicle = 100%; read-out: SPRR (%) (Substance P-Response Remaining, intracellular calcium concentration)
# T1 construct: expressed in transfected cells; host or cells: 293T cells (RIKEN), transient transfection with pcDNA3.1(-) plasmid
# Description: Inhibitory Effect on Human NK1 Receptor
# (1) Preparation of Human NK1 Receptor-Expressing Cells
# Human NK1 receptor-expressing cells were prepared by the same methods as those described in 2-3 and 2-4 of Test Example 1.
# (2) Study on Inhibitory Effect on Increase in Intracellular Calcium Concentration
# The human NK1 receptor-expressing cells were washed with 300 μL/well of a washing solution (20 mM HEPES/Hanks Balanced Salt Solution (HBSS) pH7.3). A fluorescent calcium indicator (Fluo-4 Direct Calcium Assay Kit, Life Technologies, containing 0.42 mM probenecid and 0.1% bovine serum albumin, prepared according to the protocol of the product) was added to the wells at 150 μL/well, and the plate was incubated at 37° C. for 30 minutes in an incubator. Then, DMSO solutions of a test compound, which were prepared at an 80-time higher concentration using 100% dimethyl sulfoxide (DMSO), were added to the wells at 2.5 μL/well (final concentrations of 0.1, 1 and 10 μM), and the solutions were mixed. Then, the plate was further incubated at 37° C. for 30 minutes in an incubator. After 30 minutes, the intracellular calcium concentrations were measured immediately.
# The intracellular calcium concentrations were each measured as a fluorescent signal using FDSS® 7000 (Hamamatsu Photonics). A substance P (Peptide Institute, Inc.) solution which was prepared at 0.4 μM or 4 μM using an assay buffer (20 mM HEPES/Hanks Balanced Salt Solution (HBSS) pH 7.3 containing 0.1% bovine serum albumin) was added automatically to each well at 50 μL/well (final concentration of 0.1 or 1 μM) 10 seconds after starting reading, and the fluorescent signal was measured up to 120 seconds.
# The intracellular calcium concentration (%) of the cells to which a test compound was added was calculated by the equation below, where the fluorescent signal of the group to which the vehicle (DMSO) was added was regarded as 100%, and the fluorescent signal before the addition of substance P was regarded as 0%. Intracellular calcium concentration (%)=(Fluorescent signal of test compound addition group)/(Fluorescent signal of vehicle addition group)×100
# The intracellular calcium concentration (%) calculated was regarded as the remaining agonist activity of substance P (Substance P-Response Remaining: SPRR). In the table, Ex. No. means the Example number. SPRR (%) means the value obtained when the concentration of substance P was 0.1 μM and the concentration of the compound was 1 μM.
# [2] = target: T2, human CYP3A4 (Homo sapiens, UniProt P08684); assay: Inhibitory effect on CYP3A4 (Luciferin-IPA); assay type: in vitro ADME; conditions: test compound 10 μM, 30-minutes pre-incubation, Luciferin-IPA 3 μM
# T2 construct: purchased BD Biosciences
# Description: Inhibitory Effect on CYP3A4
# The dimethyl sulfoxide (DMSO) solution of the test compound with a concentration 1000 times higher than the evaluation concentration was prepared, and a reaction solution was prepared by diluting the solution. Enzyme reaction was performed by incubating in a potassium phosphate buffer solution (pH 7.4) containing 1 μM to 10 μM test compound, 3.2 mM magnesium chloride, 0.2 pmol human CYP3A4 (BD Biosciences), 0.5 mM reduced nicotinamide adenine dinucleotide phosphate (NADPH) and 3 μM Luciferin-IPA (Promega) at 37° C. for 10 minutes. The volume of the reaction solution was 50 μL/well. The 30-minutes pre-incubation group was incubated at 37° C. for 30 minutes before adding the substrate, the Luciferin-IPA solution (12.5 μL/well). At the end of the enzyme reaction, 50 μL/well of a Luciferin detection reagent (Promega) was added to the wells, and the plate was left at room temperature for 20 minutes. Then, the emission intensities were measured with Infinite M1000 (TECAN), and the enzyme activities (%) relative to the value of the group to which the test compound was not added. As a comparative example, aprepitant, which is an NK1 receptor antagonist, was tested in the same manner.
# Test was measured by the above test method, and the results are shown in Table 9 when the concentration of the test compound was 10 μM. In the table, Ex. No. means the Example number, and Pre-incubation (30 min) (%) means the enzyme activities (%) of the 30-minutes pre-incubation groups using the test compounds.
# [3] = target: T3, NK1 receptor (Meriones unguiculatus, UniProt Q5DUB1); assay: Effect on foot-tapping induced by NK1 receptor agonist GR73632 in gerbil; assay type: in vivo; conditions: male gerbil; 0.3 mg/kg from the jugular vein; GR73632 into the cerebral ventricle after 4 hours; foot-tapping period during 30 minutes
# T3 construct: from tissue; host or cells: living male gerbil, central nervous system
# Description: (1) Effect on Foot-tapping
# The test compound solution was prepared by dissolving the test compound in a vehicle (a mixture of 50% N,N-dimethylacetamide (Wako Pure Chemical Industries), 30% propylene glycol (Wako Pure Chemical Industries), 4% 2-hydroxypropyl-β-cyclodextrin (Wako Pure Chemical Industries) and 16% distilled water).
# A male gerbil (Japan SLC) was anesthetized with isoflurane, and 0.3 mg/kg of a test compound was administered from the jugular vein. After 4 hours, GR73632 (5 pmol/5 μL saline), which is an NK1 receptor agonist, was administered into the cerebral ventricle at the part 1 mm lateral to and 4.5 mm below the bregma in the head, under anesthesia with isoflurane. After the administration, the gerbil was moved to an observation cage, and the foot-tapping period during 30 minutes after the recovery of the righting reflex was measured. As a comparative example, aprepitant, which is an NK1 receptor antagonist, was tested in the same manner. The foot-tapping inhibition rate (%) of each test compound was calculated by the following equation. Foot-tapping inhibition rate (%)={1−(Foot-tapping period when test compound was administered)/(Foot-tapping period when solvent was administered)}×100 (2) Measurement of Drug Concentrations
# In the table, Ex. No. means the Example number. Inhibition (%) means the foot-tapping inhibition rate, and Conc. […]
# T2 sequence (P08684 whole entry): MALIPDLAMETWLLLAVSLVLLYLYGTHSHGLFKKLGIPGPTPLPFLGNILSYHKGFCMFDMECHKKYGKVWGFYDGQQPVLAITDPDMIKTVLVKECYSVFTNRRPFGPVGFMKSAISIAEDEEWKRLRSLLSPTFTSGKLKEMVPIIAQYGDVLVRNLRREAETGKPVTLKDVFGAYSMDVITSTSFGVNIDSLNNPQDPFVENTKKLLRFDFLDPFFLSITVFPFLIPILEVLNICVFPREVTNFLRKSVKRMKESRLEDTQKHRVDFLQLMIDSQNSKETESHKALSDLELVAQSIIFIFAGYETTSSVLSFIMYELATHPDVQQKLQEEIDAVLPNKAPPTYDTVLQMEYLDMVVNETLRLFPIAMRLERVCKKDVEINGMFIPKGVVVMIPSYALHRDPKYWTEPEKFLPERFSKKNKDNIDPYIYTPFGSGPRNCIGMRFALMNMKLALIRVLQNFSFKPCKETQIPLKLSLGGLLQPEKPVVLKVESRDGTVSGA
# T1 sequence (P25103 whole entry): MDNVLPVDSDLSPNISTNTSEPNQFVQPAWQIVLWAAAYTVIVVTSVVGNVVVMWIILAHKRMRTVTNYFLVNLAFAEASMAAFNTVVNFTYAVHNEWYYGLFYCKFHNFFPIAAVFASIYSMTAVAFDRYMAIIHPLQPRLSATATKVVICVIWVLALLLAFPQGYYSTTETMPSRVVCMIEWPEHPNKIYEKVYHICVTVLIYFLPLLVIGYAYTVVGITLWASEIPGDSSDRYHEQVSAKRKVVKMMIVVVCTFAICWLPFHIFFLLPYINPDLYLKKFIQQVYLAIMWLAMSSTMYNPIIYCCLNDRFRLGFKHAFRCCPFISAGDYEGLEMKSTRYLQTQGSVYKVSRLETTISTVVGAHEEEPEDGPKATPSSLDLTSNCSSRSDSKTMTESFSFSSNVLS
# T3 sequence (Q5DUB1 whole entry): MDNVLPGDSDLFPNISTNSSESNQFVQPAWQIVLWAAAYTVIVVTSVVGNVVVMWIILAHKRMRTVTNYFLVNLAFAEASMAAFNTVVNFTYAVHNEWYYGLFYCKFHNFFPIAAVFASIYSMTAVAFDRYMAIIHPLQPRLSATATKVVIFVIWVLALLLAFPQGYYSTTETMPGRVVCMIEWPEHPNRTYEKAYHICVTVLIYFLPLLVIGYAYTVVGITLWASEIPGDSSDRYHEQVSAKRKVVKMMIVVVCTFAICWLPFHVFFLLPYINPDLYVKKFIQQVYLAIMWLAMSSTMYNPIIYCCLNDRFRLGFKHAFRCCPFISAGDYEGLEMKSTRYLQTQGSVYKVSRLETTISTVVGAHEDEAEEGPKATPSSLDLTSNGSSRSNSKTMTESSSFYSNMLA
smiles,measurement,setting,value
"Cc1cc(F)ccc1[C@H]1CN(C[C@H]2CC[C@@H](CC(=O)O)CC2)CCN1C(=O)N(C)[C@H](C)c1cc(C(F)(F)F)cc(C(F)(F)F)c1 [Example 4, cis-{4-[(S)-4-{[(R)-1-(3,5-Bistrifluoromethylphenyl)ethyl]methylcarbamoyl}-3-(4-fluoro-2-methylphenyl)piperazin-1-ylmethyl]cyclohexyl}acetic acid]",remaining activity at 1 µM,[1],2.1%
same,Preincubation (30 min) (%) (enzyme activities relative to group without test compound),[2],18%
same,Inhibition(%) (foot-tapping inhibition rate),[3],100%
"Cc1cc(F)ccc1[C@H]1CN(C[C@H]2CC[C@H](CC(=O)O)CC2)CCN1C(=O)N(C)[C@H](C)c1cc(C(F)(F)F)cc(C(F)(F)F)c1 [Example 5, trans-{4-[(S)-4-{[(R)-1-(3,5-Bistrifluoromethylphenyl)ethyl]methylcarbamoyl}-3-(4-fluoro-2-methylphenyl)piperazin-1-ylmethyl]cyclohexyl}acetic acid]",remaining activity at 1 µM,[1],8.9%
same,Preincubation (30 min) (%) (enzyme activities relative to group without test compound),[2],21%
same,Inhibition(%) (foot-tapping inhibition rate),[3],100%
